≈ marks a conversion by molar mass, not a printed value. Like-named read-outs stand apart in the source and are kept apart here.
Columns and labels:
OVCAR-8 = experiment: Human cancer cell growth inhibition assay (ATP assay), OVCAR-8; format: cell-based; conditions: Homo sapiens, OVCAR-8, 96 h; 4 days; Means±SEM from three independent experiments; read-out: OVCAR-8, IC50
[1] = Scoville Heat Units, cited from earlier work
human TRPA1 = target: T1, human TRPA1 (Homo sapiens, UniProt O75762); experiment: In vitro Ca2+ flux counter-screen in human TRPA1 overexpressing cells; format: cell-based; conditions: counter-screen; read-out: TRPA1 EC50
T1 construct: expressed in transfected cells; host or cells: overexpressing cells

[2] = Rodent eye wiping assay (pungency)
[3] = system: Src protein activation in NCI-H460 cells; experiment: Cancer cell immunocytochemistry assay, Phospho-Src (Y416), NCI-H460; format: cell-based, human; conditions: YB-1 15 μM, capsaicin 50 μM, 1-6 h
Method: Human cancer cells (15,000 cells/well) in 96 well half area microplate (Cat #3882, Corning) were incubated overnight at 37° C., then compounds or DMSO control were added to the cell culture and incubated at 37° C. for 1-6 h. The cells were sequentially fixed with 4% formalin, permeabilized with 0.5% Triton X-100, blocked with 5% BSA in PBS, incubated with Human Phospho-Src (Y416) Antibody (Cat #MAB2685, R&D Systems) at rt for 2 h, incubated with the secondary antibody Goat Ant-Rabbit IgG H&L (Alexa Fluor 488) (Cat #ab150077, abeam) for 45 min, and incubated with DAPI (Cat #D9542, Sigma-Aldrich) for 5 min. Finally, the cells were washed and covered with PBS. The cell images were visualized on an inverted fluorescence microscope (Leica DMIL Fluorescent Inverted Microscope with Digital Camera, Leica Microsystems). Pictures were taken [FIGS. 14A-C. Green: Human Phospho-Src (Y416), the activated form of the Src protein; Blue: DAPI (stain nucleus of cell)]. The fluorescence intensity values from 5 random cells were averaged, subtracted by the background value (area between cells) and the blank value [the blank control without the Human Phospho-Src (Y416) Antibody], then plotted as percentage against the DMSO control to indicate the effects of compound treatment on the cellular Src kinase phosphorylation levels in the cancer cells (FIGS. 15A-D).

Aqueous solubility = format: physicochemical
Method: Chemical analysis and solubility tests were performed blind to the identity of the samples. Intermediates and final analogs were analyzed by NMR (JEOL 400 MHz NMR) and HPLC/MS (Waters Acquity UPLC with SQD Mass Spec) to confirm structures and purity. Final compounds were purified to achieve >95% purity based on HPLC analysis.

[4] = Operant Pain Tolerance Assay; format: in vivo; conditions: intraplantar
Method: Model 3—The ability of YB-16 to increase pain tolerance was tested using a newly published Operant Pain Tolerance Assay (eNeuro 2020, 7, ENEURO.0210-19.2020). In the assay, mice were trained to seek a sucrose reward that was on a hot 42° C. plate (versus no reward on a neutral 30° C. plate). It was noticed that intraplantar YB-16 treated mice with paw inflammatory injury [induced by Complete Freund's adjuvant (CFA) 24 hrs prior to treatment] trended to spend 145% more time on the hot side of the assay but not necessarily additional time near the sucrose bottle compared to vehicle treated mice (FIG. 10B).

NCI-H460 = experiment: Human cancer cell growth inhibition assay (ATP assay), NCI-H460; format: cell-based; conditions: Homo sapiens, NCI-H460, 96 h; 4 days; Means±SEM from three independent experiments; read-out: NCl-H460, IC50

T1 sequence (O75762 whole entry): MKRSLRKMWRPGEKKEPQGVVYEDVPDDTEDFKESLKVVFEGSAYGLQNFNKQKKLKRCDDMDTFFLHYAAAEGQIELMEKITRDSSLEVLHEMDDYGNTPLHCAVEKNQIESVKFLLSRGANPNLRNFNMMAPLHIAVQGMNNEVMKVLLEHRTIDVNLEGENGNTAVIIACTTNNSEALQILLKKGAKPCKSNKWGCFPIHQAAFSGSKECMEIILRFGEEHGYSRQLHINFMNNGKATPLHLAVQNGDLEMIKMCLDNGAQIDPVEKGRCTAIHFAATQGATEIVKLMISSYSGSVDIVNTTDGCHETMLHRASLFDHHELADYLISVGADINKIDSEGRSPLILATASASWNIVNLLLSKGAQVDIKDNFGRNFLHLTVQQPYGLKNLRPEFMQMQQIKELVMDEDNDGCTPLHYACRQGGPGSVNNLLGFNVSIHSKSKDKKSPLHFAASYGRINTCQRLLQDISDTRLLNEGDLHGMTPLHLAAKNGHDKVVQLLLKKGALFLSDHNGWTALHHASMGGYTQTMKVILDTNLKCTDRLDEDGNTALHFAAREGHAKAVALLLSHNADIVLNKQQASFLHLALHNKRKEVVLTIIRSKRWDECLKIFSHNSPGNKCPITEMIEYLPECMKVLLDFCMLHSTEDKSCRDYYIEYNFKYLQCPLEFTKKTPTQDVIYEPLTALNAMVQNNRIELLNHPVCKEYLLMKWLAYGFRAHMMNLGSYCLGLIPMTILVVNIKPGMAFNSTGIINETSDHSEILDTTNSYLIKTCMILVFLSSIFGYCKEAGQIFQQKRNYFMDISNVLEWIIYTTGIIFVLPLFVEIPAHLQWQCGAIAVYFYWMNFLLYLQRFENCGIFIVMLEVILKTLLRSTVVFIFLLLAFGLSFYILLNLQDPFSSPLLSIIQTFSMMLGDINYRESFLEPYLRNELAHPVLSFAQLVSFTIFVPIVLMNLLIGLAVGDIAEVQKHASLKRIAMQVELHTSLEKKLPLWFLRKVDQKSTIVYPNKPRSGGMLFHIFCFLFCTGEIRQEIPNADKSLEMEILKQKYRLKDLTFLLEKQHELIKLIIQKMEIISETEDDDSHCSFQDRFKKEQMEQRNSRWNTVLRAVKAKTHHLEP

Structure (SMILES): COc1cc(CNC(=O)CCCC/C=C/C(C)C)ccc1O [Capsaicin, trans-8-methyl-N-vanillyl-6-nonenamide, reference compound]
- IC50 (OVCAR-8): 234 ± 31 µM
- Pungency (SHU) [1]: 16,000,000 SHU
- Pungency (SHU) ([1]; listed as capsaicin): 16.0 million
- EC50 (human TRPA1): > 10 µM
- MPP ([2]; Moderate Pain-Producing Potency concentration: dose producing 10 normalized eye wipes): 0.041 mg/mL
- Pungency RPP ([2]; Relative Pain-Producing Potency with Capsaicin set to 100): 100
- Pungency RPP ([2]; Table 3 comparison, Capsaicin set to 100): 100
- cellular Src kinase phosphorylation levels [3]: time-dependently reduced the cellular Src kinase phosphorylation levels
- solubility (Aqueous solubility): 13 µg/mL (≈ 42.6 µM)
- sedation in operant pain tolerance assay [4]: inflammatory injury with sedation
- sensitivity to hot plate after inflammatory injury ([4]; paw inflammatory injury (CFA)): Weak trend for reduced sensitivity to
- IC50 (NCI-H460): 200 ± 65 µM

Reference: patent US20240116856A1 (Young BioPharma, LLC, priority 2020, published 2024)
